Measurements reported in US20260250290A1 (BRISTOL-MYERS SQUIBB COMPANY, priority 2023, published 2026).
Where a name gives a salt, the structure may show the parent alone.

The compounds below were run against T1, full length SGK1 (Homo sapiens, UniProt O00141) (assay: SGK1 inhibition Assay A (Caliper LabChip electrophoretic separation of fluorescent peptide substrate and phosphorylated product)). Settings: Assay A; 20 μM ATP, 40 min incubation; read-out: SGK1 IC50.
T1 construct: 125 μM full length SGK1 (Life Technologies Part #PR7358A); purchased Life Technologies PR7358A
T1 sequence (O00141 1-431): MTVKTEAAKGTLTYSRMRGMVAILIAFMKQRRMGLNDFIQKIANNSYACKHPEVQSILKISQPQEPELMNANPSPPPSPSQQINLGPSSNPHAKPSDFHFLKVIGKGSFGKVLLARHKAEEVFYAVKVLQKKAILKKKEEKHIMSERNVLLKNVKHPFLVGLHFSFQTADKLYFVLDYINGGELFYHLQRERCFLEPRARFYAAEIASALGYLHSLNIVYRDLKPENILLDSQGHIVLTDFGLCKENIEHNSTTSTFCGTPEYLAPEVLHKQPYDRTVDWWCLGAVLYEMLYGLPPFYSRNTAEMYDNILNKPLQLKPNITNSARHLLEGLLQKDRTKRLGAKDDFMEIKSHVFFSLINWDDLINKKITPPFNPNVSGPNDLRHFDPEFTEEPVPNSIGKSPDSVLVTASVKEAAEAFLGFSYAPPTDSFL
Type: biochemical

In order of falling IC50:
1. Cc1ccc(C(=O)N[C@@H]2CCCN(c3c(Br)c(-c4ccc(S(C)(=O)=O)cc4)n4ncnc(N)c34)C2)s1 [Example 194, N-[(3R)-1-[4-amino-6-bromo-7-(4-methanesulfonylphenyl)pyrrolo[2,1-f][1,2,4]triazin-5-yl]piperidin-3-yl]-5-methylthiophene-2-carboxamide]  188 nM
2. CC(=O)N1CC=C(c2cc(N3CCC[C@@H](NC(=O)c4sc(Cl)cc4OCCN(C)C)C3)c3c(N)ncnn23)CC1 [Example 180, (R)—N-(1-(7-(1-acetyl-1,2,3,6-tetrahydropyridin-4-yl)-4-aminopyrrolo[2,1-f][1,2,4]triazin-5-yl)piperidin-3-yl)-5-chloro-3-(2-(dimethylamino)ethoxy)thiophene-2-carboxamide 2 TFA]  47 nM
3. COC(=O)N1CC=C(c2cc(N3CCC[C@@H](NC(=O)c4sc(Cl)cc4OCCN4CCOCC4)C3)c3c(N)ncnn23)C1 [Example 185, methyl (R)-3-(4-amino-5-(3-(5-chloro-3-(2-morpholinoethoxy)thiophene-2-carboxamido)piperidin-1-yl)pyrrolo[2,1-f][1,2,4]triazin-7-yl)-2,5-dihydro-1H-pyrrole-1-carboxylate, 2 TFA]  43 nM
4. CN(C)CCOc1cc(Cl)sc1C(=O)N[C@@H]1CCCN(c2cc(C3=CCN(C(=O)C4CCC4)CC3)n3ncnc(N)c23)C1 [Example 183, (R)-N-(1-(4-amino-7-(1-(cyclobutanecarbonyl)-1,2,3,6-tetrahydropyridin-4-yl)pyrrolo[2,1-f][1,2,4]triazin-5-yl)piperidin-3-yl)-5-chloro-3-(2-(dimethylamino)ethoxy) thiophene-2-carboxamide, 2 TFA]  42 nM
5. COC(=O)N1CC=C(c2cc(N3CCC[C@@H](NC(=O)c4sc(Cl)cc4OCCN(C)C)C3)c3c(N)ncnn23)CC1 [Example 174, methyl (R)-4-(4-amino-5-(3-(5-chloro-3-(2-(dimethylamino)ethoxy)thiophene-2-carboxamido)piperidin-1-yl)pyrrolo[2,1-f][1,2,4]triazin-7-yl)-3,6-dihydropyridine-1(2H)-carboxylate]  37 nM
6. CN(C)CCOc1cc(Cl)sc1C(=O)N[C@@H]1CCCN(c2cc(C3=CCN(C(=O)C4CC(F)(F)C4)CC3)n3ncnc(N)c23)C1 [Example 184, (R)-N-(1-(4-amino-7-(1-(3,3-difluorocyclobutane-1-carbonyl)-1,2,3,6-tetrahydropyridin-4-yl)pyrrolo[2,1-f][1,2,4]triazin-5-yl)piperidin-3-yl)-5-chloro-3-(2-(dimethylamino)ethoxy) thiophene-2-carboxamide, 2 TFA]  36 nM
7. CN(C)CCOc1cc(Cl)sc1C(=O)N[C@@H]1CCCN(c2cc(C3=CCN(C(=O)C4CC4)CC3)n3ncnc(N)c23)C1 [Example 182, (R)-N-(1-(4-amino-7-(1-(cyclopropanecarbonyl)-1,2,3,6-tetrahydropyridin-4-yl)pyrrolo[2,1-f][1,2,4]triazin-5-yl)piperidin-3-yl)-5-chloro-3-(2-(dimethylamino)ethoxy) thiophene-2-carboxamide, 2 TFA]  35 nM
8. CN(C)CCOc1cc(Cl)sc1C(=O)N[C@@H]1CCCN(c2cc(-c3ccc4ncnn4c3)n3ncnc(N)c23)C1 [Example 193, (R)-N-(1-(7-([1,2,4]triazolo{1,5-a]pyridin-6-yl)-4-aminopyrrolo[2,1-f][1,2,4]triazin-5-yl)piperidin-3-yl)-5-chloro-3-(2-(dimethylamino)ethoxy) thiophene-2-carboxamide]  25 nM
9. CN(C)CCOc1cc(Cl)sc1C(=O)N[C@@H]1CCCN(c2cc(-c3ccc(-n4cncn4)nc3)n3ncnc(N)c23)C1 [Example 190, (R)-N-(1-(7-(6-(1H-1,2,4-triazol-1-yl)pyridin-3-yl)-4-aminopyrrolo[2,1-f][1,2,4]triazin-5-yl)piperidin-3-yl)-5-chloro-3-(2-(dimethylamino)ethoxy) thiopbene-2-carboxamide]  19 nM
10. CN(C)CCOc1cc(Cl)sc1C(=O)N[C@@H]1CCCN(c2cc(C3=CCN(C(=O)CC(F)(F)F)CC3)n3ncnc(N)c23)C1 [Example 181, (R)-N-(1-(4-amino-7-(1-(3,3,3-trifluoropropanoyl)-1,2,3,6-tetrahydropyridin-4-yl)pyrrolo[2,1-f][1,2,4]triazin-5-yl)piperidin-3-yl)-5-chloro-3-(2-(dimethylamino)ethoxy) thiophene-2-carboxamide, 2 TFA]  17 nM
11. CN(C)CCOc1cc(Cl)sc1C(=O)N[C@@H]1CCCN(c2cc(-c3ccc4nnnn4c3)n3ncnc(N)c23)C1 [Example 192, (R)-N-(1-(4-amino-7-(tetrazolo[1,5-a]pyridin-6-yl)pyrrolo[2,1-f][1,2,4]triazin-5-yl)piperidin-3-yl)-5-chloro-3-(2-(dimethylamino)ethoxy) thiophene-2-carboxamide]  10 nM
12. CN(C)CCOc1cc(Cl)sc1C(=O)N[C@@H]1CCCN(c2cc(C3=CCN(C(=O)C4CC(F)(F)C4)C3)n3ncnc(N)c23)C1 [Example 179, (R)-N-(1-(4-amino-7-(1-(3,3-difluorocyclobutane-1-carbonyl)-2,5-dihydro-1H-pyrrol-3-yl)pyrrolo[2,1-f][1,2,4]triazin-5-yl)piperidin-3-yl)-5-chloro-3-(2-(dimethylamino)ethoxy) thiophene-2-carboxamide, 2 TFA]  8 nM
13. CN(C)CCOc1cc(Cl)sc1C(=O)N[C@@H]1CCCN(c2cc(C3=CCN(C(=O)C4CCC4)C3)n3ncnc(N)c23)C1 [Example 178, (R)-N-(1-(4-amino-7-(1-(cyclobutanecarbonyl)-2,5-dihydro-1H-pyrrol-3-yl)pyrrolo[2,1-f][1,2,4]triazin-5-yl)piperidin-3-yl)-5-chloro-3-(2-(dimethylamino)ethoxy) thiophene-2-carboxamide, 2 TFA]  6 nM
14. CN(C)CCOc1cc(Cl)sc1C(=O)N[C@@H]1CCCN(c2cc(-c3ccc(-n4cnnn4)cc3)n3ncnc(N)c23)C1 [Example 187, (R)-N-(1-(7-(4-(1H-tetrazol-1-yl)phenyl)-4-aminopyrrolo[2,1-f][1,2,4]triazin-5-yl)piperidin-3-yl)-5-chloro-3-(2-(dimethylamino)ethoxy) thiophene-2-carboxamide, 2 TFA]  6 nM
15. CN(C)CCOc1cc(Cl)sc1C(=O)N[C@@H]1CCCN(c2cc(-c3ccc(-n4cnc(C#N)n4)nc3)n3ncnc(N)c23)C1 [Example 191, (R)-N-(1-(4-amino-7-(6-(3-cyano-1H-1,2,4-triazol-1-yl)pyridin-3-yl)pyrrolo[2,1-f][1,2,4]triazin-5-yl)piperidin-3-yl)-5-chloro-3-(2-(dimethylamino)ethoxy) thiophene-2-carboxamide]  6 nM
16. CN(C)CCOc1cc(Cl)sc1C(=O)N[C@@H]1CCCN(c2cc(C3=CCN(C(=O)C4CC4)C3)n3ncnc(N)c23)C1 [Example 177, (R)-N-(1-(4-amino-7-(1-(cyclopropanecarbonyl)-2,5-dihydro-1H-pyrrol-3-yl)pyrrolo[2,1-f][1,2,4]triazin-5-yl)piperidin-3-yl)-5-chloro-3-(2-(dimethylamino)ethoxy) thiophene-2-carboxamide, 2 TFA]  5 nM
17. COC(=O)N1CC=C(c2cc(N3CCC[C@@H](NC(=O)c4sc(Cl)cc4OCCN(C)C)C3)c3c(N)ncnn23)C1 [Example 173, methyl (R)-3-(4-amino-5-(3-(5-chloro-3-(2-(dimethylamino)ethoxy)thiophene-2-carboxamido)piperidin-1-yl)pyrrolo[2,1-f][1,2,4]triazin-7-yl)-2,5-dihydro-1H-pyrrole-1-carboxylate, 2 TFA]  4 nM
18. CC(=O)N1CC=C(c2cc(N3CCC[C@@H](NC(=O)c4sc(Cl)cc4OCCN(C)C)C3)c3c(N)ncnn23)C1 [Example 175, (R)—N-(1-(7-(1-acetyl-2,5-dihydro-1H-pyrrol-3-yl)-4-aminopyrrolo[2,1-f][1,2,4]triazin-5-yl)piperidin-3-yl)-5-chloro-3-(2-(dimethylamino)ethoxy)thiophene-2-carboxamide, 2 TFA]  4 nM
19. CN(C)CCOc1cc(Cl)sc1C(=O)N[C@@H]1CCCN(c2cc(C3=CCN(C(=O)CC(F)(F)F)C3)n3ncnc(N)c23)C1 [Example 176, (R)-N-(1-(4-amino-7-(1-(3,3,3-trifluoropropanoyl)-2,5-dihydro-1H-pyrrol-3-yl)pyrrolo[2,1-f][1,2,4]triazin-5-yl)piperidin-3-yl)-5-chloro-3-(2-(dimethylamino)ethoxy) thiophene-2-carboxamide, 2 TFA]  4 nM
20. CN(C)CCOc1cc(Cl)sc1C(=O)N[C@@H]1CCCN(c2cc(-c3ccc(-n4cnnn4)c(F)c3)n3ncnc(N)c23)C1 [Example 188]  4 nM
21. CN(C)CCOc1cc(Cl)sc1C(=O)N[C@@H]1CCCN(c2cc(-c3ccn4nnnc4c3)n3ncnc(N)c23)C1 [Example 186, (R)—N-(1-(4-amino-7-(tetrazolo[1,5-a]pyridin-7-yl)pyrrolo[2,1-f][1,2,4]triazin-5-yl)piperidin-3-yl)-5-chloro-3-(2-(dimethylamino)ethoxy)thiophene-2-carboxamide]  3 nM
22. CN(C)CCOc1cc(Cl)sc1C(=O)N[C@@H]1CCCN(c2cc(-c3ccc(C(F)F)nc3)n3ncnc(N)c23)C1 [Example 189, (R)-N-(1-(4-amino-7-(6-(difluoromethyl)pyridin-3-yl)pyrrolo[2,1-f][1,2,4]triazin-5-yl)piperidin-3-yl)-5-chloro-3-(2-(dimethylamino)ethoxy) thiophene-2-carboxamide]  2 nM
